Test results reported in patent US11802107B2, “Compounds and methods of use” (Signum Biosciences, Inc., priority 2017, dated 2023).

Experiments:
[1] = tested on: IL-17; test: Concanavalin-A-induced IL-17 on PBMCs; type: cell-based; details: Homo sapiens, PBMC, ConA, 24 hours, ELISA
[2] = tested on: IL-22; test: Anti-CD3/CD28+IL-4-induced IL-22 on PBMCs; type: cell-based; details: Homo sapiens, PBMC, anti-CD3/CD28 beads + 50 ng/mL IL-4, 48 hours, ELISA, read-out: TCR/IL-4-PBMCs IL-22 IC50
Procedure: (§1) Cryopreserved human Peripheral Blood Mononuclear cells (PBMCs) from healthy adult donors were obtained from Zen Bio, Inc (Cat No. SER-PBMC-F). Cells were cultured in 96-well plates with lymphocyte media (Cat No. LYMPH-1) and were pre-treated with test materials (≤100 μM) for 2 hours and later co-treated with test materials and anti-CD3/CD28 beads (Thermo-Fisher; Cat No. 11131D) and 50 ng/mL recombinant human IL-4 (R&D Systems® #204-IL) for 48 hours at 37° C. and 5% CO2. After incubation, cell media supernatants were harvested and used to measure cytokine levels (IL-22, IL-31) using ELISA kits (R&D Systems® #DY782, #DY2824). Results were represented as percent of inhibition relative to untreated and anti-CD3/CD28+IL-4 only treated cells. IC50 values were determined by non-linear regression analysis using the four-parameter logistic equation.

[3] = tested on: IL-4; test: T-cell receptor (anti-CD3/CD28)-induced IL-4 on PBMCs; type: cell-based; details: Homo sapiens, PBMC, anti-CD3/CD28 beads, 24 hours, ELISA, read-out: TCR-PBMCs IL-4 Protein IC50
Procedure: as §1, with “at 1:0.4 PBMC:bead ratio” for “and 50 ng/mL recombinant human IL-4 (R&D Systems® #204-IL)”, “24” for “48”, “(IL-4, IL-5, IL-10)” for “(IL-22, IL-31)”, “(BD Biosciences® #555194, #555157; R&D” for “(R&D”, “#DY317).” for “#DY782, #DY2824).”, “anti-CD3/CD28 beads-only” for “anti-CD3/CD28+IL-4 only”

[4] = tested on: LPS-induced cytokines; test: LPS-induced cytokines on PBMCs; type: cell-based, human; details: LPS instead of anti-CD3/CD28 beads
Procedure: as §1, with “at 1:0.4 PBMC:bead ratio” for “and 50 ng/mL recombinant human IL-4 (R&D Systems® #204-IL)”, “24” for “48”, “(IL-4, IL-5, IL-10)” for “(IL-22, IL-31)”, “(BD Biosciences® #555194, #555157; R&D” for “(R&D”, “#DY317).” for “#DY782, #DY2824).”, “anti-CD3/CD28 beads-only” for “anti-CD3/CD28+IL-4 only”
By a similar method, but instead of anti-CD3/CD28 beads (Thermo-Fisher; Cat No. 11131D), compounds A, C, T and E were treated with LPS (Sigma Aldrich, Cat. No. LF4321) to measure inhibition of LPS-induced cytokines, and compounds C and T were treated with PHA-L (Sigma Aldrich, Cat No. 11249738001) to measure inhibition of PHA-induced cytokines.

[5] = tested on: IL-17; test: P. acnes-induced IL-17 protein on human PBMCs (ELISA); type: cell-based; details: PBMC, PBMCs + live P. acnes 1:1, test material 30 PM, 24 hours
Procedure: (§2) Cryopreserved human Peripheral Blood Mononuclear cells (PBMCs) from healthy adult donors were obtained from Zen Bio, Inc (Cat No. SER-PBMC-F). Cells were cultured in 12-well plates with lymphocyte media (Cat No. LYMPH-1) and incubated with test materials ([…]) and live P. acnes (ATCC® 6919TM) at 1:1 PBMC: P. acnes bacteria ratio for 24 hours at 37° C. and 5% CO2. After incubation, cell media supernatants were harvested and used to measure pro-inflammatory cytokine levels (IL-8, TNF-α, IL-1b, IL-17) using ELISA kits (BD Biosciences® #557966, #555212, #555244; R&D Systems® #DY317). Total RNA was extracted from cells using the RNAqueous® kit (Ambion®; Cat No. 1912) and cDNA was obtained using the High Capacity RNA-to-cDNA kit (Applied Biosystems®; Cat No. 4387406). Quantitative PCR (qPCR) was performed using the TaqMan® Fast Advanced Master Mix (Applied Biosystems®; Cat No. 4444556) and specific TaqMan®-probes human gene primers CXCL8 (IL-8), IL1B (IL-1b), TNF (TNF-α), IL17A (IL-17A) and GAPDH to calculate the relative gene fold expression change per treatment. Gene expression analysis was performed using the comparative Ct method (also known as the 2-[delta][delta]Ct) approach by comparing the Ct values of P. acnes-only treated cells with the untreated samples and normalized to GAPDH gene expression as endogenous housekeeping gene.

[6] = tested on: P. acnes (ATCC 6919) biofilms; test: P. acnes biofilm eradication (MBEC), crystal violet; type: cell-based, Propionibacterium acnes; details: 24 hours, ≥80% eradication vs vehicle
Procedure: P. acnes (ATCC® 6919™) was cultured as described above. Bacteria biofilms were established by seeding P. acnes cultures in 96-well plates and incubating for 24 hours without agitation. Later, biofilms were incubated with test materials for 24 hours. Remaining biofilms were washed and stained with crystal violet. […] The absorbance was measured at 595 nm in a microplate reader. […] Results from disk diffusion susceptibility testing (Kirby-Bauer Method) after 72 hours incubation were also obtained.

[7] = tested on: HCAP18; test: NHEK antimicrobial peptide gene expression, hCAP18; type: cell-based, human; details: 10 μM, 24 hours, qPCR, normalized to GAPDH
Procedure: Normal human epidermal keratinocytes (NHEKs) from neonatal donors were obtained from Thermo-Fisher (Cat No. C-001-5C). Cells were cultured in 6-well plates for 24 hours before treatments with EpiLife media (Cat No. MEPI500CA) supplemented with keratinocytes growth supplement (Cat No. 50015). On Day 2, media was removed and incubated with test materials (10 μM) for 24 hours at 37° C. and 5% CO2. On Day 3, total RNA was extracted from cells using the RNAqueous® kit (Ambion®; Cat No. 1912) and cDNA was obtained using the High Capacity RNA-to-cDNA kit (Applied Biosystems®; Cat No. 4387406). Quantitative PCR (qPCR) was performed using the TaqMan® Fast Advanced Master Mix (Applied Biosystems®; Cat No. 4444556) and specific TaqMan®-probes human gene primers DEFB4B (hBD2), DEFB103 (hBD3), HCAP18 and GAPDH to calculate the relative gene fold expression change per treatment. Gene expression analysis was performed using the comparative Ct method (also known as the 2-[delta][delta]Ct) approach by comparing the Ct values of the treated samples with the untreated samples and normalized to GAPDH gene expression as endogenous housekeeping gene. Results were represented as fold-expression/untreated cells.

[8] = tested on: TNF-α; test: P. acnes-induced TNF-α protein on human PBMCs (ELISA); type: cell-based; details: PBMCs + live P. acnes 1:1, test material 30 PM, 24 hours
Procedure: as §2

[9] = tested on: IL1B (IL-1b); test: P. acnes-induced IL-1b gene on human PBMCs (qPCR); type: cell-based; details: PBMC, PBMCs + live P. acnes 1:1, test material 30 PM, 24 hours
Procedure: as §2

Row | IC50 [1] [µM] | IC50 [2] [µM] | IC50 [3] [µM] | Compound | inhibition of LPS-induced cytokines [4] | inhibition at 30 pM [5] [%] | MBEC [6] | hCAP18 gene expression [7] | TNFa-Protein % inhibition [8] [%] | inhibition at 30 pM [9] [%]
1 | 3.1 | 2 | 2 | N#Cc1ccc(Oc2ccc3c(c2)COB3O)cc1 [AN2728, reference compound] |  |  |  |  |  | 
2 |  |  | > 100 | C/C(=C\CSCC(NC(=O)NCC(=O)O)C(=O)O)CCCC(C)CCCC(C)CCCC(C)C (stereo not drawn) [A] | did not show significant inhibition | 32 |  |  |  | 
3 | 0.5 | > 25 | 20 | C/C(=C\CSC[C@H](NC(=O)N(C)CC(=O)O)C(=O)O)CCCC(C)CCCC(C)CCCC(C)C (stereo partly drawn) [Compound C, (2R)-2-{[(carboxymethyl)(methyl)carbamoyl]amino}-3-{[(2E)-3,7,11,15-tetramethylhexadec-2-en-1-yl]sulfanyl}propanoic acid] | did not show significant inhibition | 0 | 9 µg/mL | 0.5 Fold-expression/untreated cells | 0 | 0
4 | 11.4 | > 25 | 42 | C/C(=C\CSC[C@H](NC(=O)N1CCC[C@H]1C(=O)O)C(=O)O)CCCC(C)CCCC(C)CCCC(C)C (stereo partly drawn) [Compound E] | did not show significant inhibition | 23 | 12 μg/mL and (21) μM | 0.7 Fold-expression/untreated cells | 0 | 20
5 | 94.2 | > 25 |  | C/C(=C\CSCC(NC(=O)N(CC(=O)O)CC(=O)O)C(=O)O)CCCC(C)CCCC(C)CCCC(C)C (stereo not drawn) [Compound G] |  | 29 | 7 μg/mL and (11) μM | 0.6 Fold-expression/untreated cells | 0 | 10
6 | 69.7 | > 25 | 25 | C/C(=C\CSC[C@H](NC(=O)COCC(=O)O)C(=O)O)CCCC(C)CCCC(C)CCCC(C)C (stereo partly drawn) [Compound T] | did not show significant inhibition |  |  |  |  | 27
